Results on 1 molecule are retold here after US10351883B2, “Compounds for increasing lipid synthesis and storage” (NUtech Ventures, priority 2015, dated 2019).

What all share (assay type): cell-based
Data set [1] deals with Chlamydomonas reinhardtii cells. The data set is described as follows: Microscopy of treated cells (organelles, lipid droplets). The note with it: FIG. 1. As for the experimental part: The screening library included 43,736 compounds (ChemBridge, Corp). […] A sub-set of compounds were retested using an 8-point dose response assay (0.25-30 μM). Compounds were further assessed visually using a Nikon Ti-inverted microscope (60×) to reconfirm lipid droplet accumulation was induced.

Data set [2] shares this test system. The data set can be described thus: Lipid accumulation using lipophilic dye Nile Red. On the procedure:
[…] At the indicated times 200 μL cells were removed from each well and optical density and nile red fluorescence were measured.
Lipid accumulation over a period of 72 hours was also measured (30 μM test compound) using lipophilic dye Nile Red, as shown in FIG. 4. […] FIGS. 12A-12C show representative images of C. reinhardtii cultures that were treated with 10 μM of representative test compounds of Formula Ia, Formula IIa, and Formula IIIa. The corresponding lipid accumulation was visualized using confocal microscopy after 72 hours in culture.

For data set [3] the test system is unchanged. The data set can be described thus: Fatty acid assay. Conditions: 30 μM, FIG. 5.
The test system is the same in data set [4]. The data set is described as follows: Triglyceride assay. Conditions: 5 μM, FIG. 6.
Data set [5] has the same test system. The data set is described as follows: Cellular chlorophyll and carotenoid levels. The note with it: 30 μM, FIG. 7.
Data set [6] has the same test system. The data set can be described thus: Levels of proteins required for photosynthesis. Conditions: Rubisco large and small sub unit, PSa D, PSb A, phosphoribulokinase, histone; FIG. 8.
Data set [7] has the same test system. The data set is described as follows: Cellular carbohydrate levels. Conditions: 30 μM, FIG. 9.
For data set [8] the test system is unchanged. The data set is described as follows: Total protein levels in cells. The note with it: FIG. 10.
Data set [9] has as its system Chlamydomonas reinhardtii CC125. The data set is described as follows: Lipid accumulation in algal cells. The note with it: 0.63 μM to 50 μM, FIG. 11A-11C. As for the experimental part:
(§1) Compounds 1, 62, and 136 were assayed in algal species Chlamydomonas reinhardtii CC125, Chlorella sorokiniana UTEX 1230, Chlorella vulgaris UTEX 395, and Tetrachlorella alterns UTEX 2453 at concentrations ranging from 0.63 μM to 50 μM.

Data set [10] concerns Chlorella sorokiniana UTEX 1230. The data set can be described thus: Lipid accumulation in algal cells. Conditions: 0.63 μM to 50 μM, FIG. 11A-11C. As for the experimental part:
as §1

Data set [11] concerns Chlorella vulgaris UTEX 395. The data set is described as follows: Lipid accumulation in algal cells. The note with it: 0.63 μM to 50 μM, FIG. 11A-11C. On the procedure:
as §1

Data set [12] concerns Tetrachlorella alterns UTEX 2453. The data set can be described thus: Lipid accumulation in algal cells. The note with it: 0.63 μM to 50 μM, FIG. 11A-11C. As for the experimental part:
as §1

Turning to `COc1ccccc1N1CCN(Cc2ccc(O)cc2)CC1` [Compound 62, 4-((4-(2-methoxyphenyl)piperazin-1-yl)methyl)phenol], the “disruption of major organelles including nucleus, endoplasmic reticulum, and chloroplast” value in data set [1] was “does not disrupt major organelles”. In addition, the lipid accumulation entry in data set [2] (0.5 μM to 15.0 μM, FIG. 3) is on record as “increased lipid accumulation”; in data set [9] it was “stimulated lipid accumulation”; in data set [10], “stimulated lipid accumulation”; in [11] it was “stimulated lipid accumulation”; in data set [12], “stimulated lipid accumulation”. For the same molecule, the “lipid accumulation over 72 hours” value in [2] (30 μM test compound, FIG. 4) is given as “increased lipid accumulation”. In data set [3], the fatty acid levels result was “increased fatty acid levels”. Also, in [4], the triacylglyercol levels entry is reported as “increased triacylglyercol levels”. Also, the carotenoid levels entry in data set [5] is listed as “did not significantly alter”. In data set [5], the “levels of chlorophyll A (Chl A)” value was “did not significantly alter”. For the same molecule, the “levels of chlorophyll B (Chl B)” value in data set [5] is “did not significantly alter”. Further, the “levels of proteins required for photosynthesis” value in data set [6] is “minor effects”. Besides, in data set [7], the carbohydrate levels result is reported as “increased carbohydrate levels”. Besides, in [8], the total protein levels result is “None of the test compounds significantly affected”.
